Source: patent US12240870B2, “Sequencing method for CAR T cell therapy” (Purdue Research Foundation, priority 2018, dated 2025)
“Also recorded” adds a separate entry of the source.

Legend:
FRβ (CHO-β) = target: T1, FRβ (CHO-β) (Homo sapiens, UniProt P14207); assay: 3H-EC17 cell-based radioligand binding assay on CHO-β cells; details: 2 h at 37° C.
T1 construct: expressed in transfected cells; host or cells: CHO (Chinese hamster ovary) cells
Experimental: FIG. 10, Panel A: Kd values of ^3H-EC17 uptake by FR+ target cells after a 2 hour incubation at 37° C. (calculated from the numbers of molecules bound per cell). Panel B: Kd value of ^3H^−EC17 uptake by E2-CAR-T cells (˜24% EGFRt+, ˜95:5 CD8/CD4 ratio) after a 2 hour incubation at room temperate (calculated from total cell-associated radioactivity, DPM).
The bispecific affinities of EC17 CAM (a CAM is equivalent to a “bridge” or the “compound” in this application) were assessed using ^3H-EC17 in cell-based radioligand binding assays. […] The whole cell lysates were quantitated for the level of radioactivity and cellular protein content by standard Pierce BCA protein assay. The number of ^3H-EC17 molecules bound per cell was calculated to determine the dissociation constants (Kd) for FRα (KB) and FRβ (CHO-β) respectively (FIG. 10).
The EC17 has already been tested in the clinic for immunotherapy and optical imaging purposes. To directly quantify its bispecific binding affinities, ^3H-EC17 was synthesized and radioligand binding assays were carried out on KB and CHO-β cell lines representing FRα+ and FRβ+ target cells, respectively, and on unsorted EGFRt CAR-T cells representing the effector cells.

HOS-FRα xenografts = assay: HOS-FRα osteosarcoma subcutaneous xenograft, E2 CAR-T cells plus EC17; format: in vivo, NSG mice
Excerpt: Panel A: Schematic diagram to show dose scheduling of CAR-T cells (˜6 million, day 0) plus EC17 in NSG mice with 3-day-old subcutaneous HOS-FRα xenografts (n=5). Starting 3 days after CAR-T cell injection (6 days after tumor implant), 3 cycles of EC17 M/Th/M […], i.e. on days 3/6/10, 17/20/24, and 31/34/38. Panel B: Measurements of tumor volumes and change in body weights. Due to tumor progression, five mice received CAR-T cells only (no EC17) were euthanized on days 23-31, and five EC17 treated mice were euthanized on days 33 (2 mice) and 47 (3 mice), respectively. Panel C: Flow cytometric analysis of CAR-T cells (human CD3ε+EGFRT+) PER 100 μL OF WHOLE BLOOD PLOTTED ON A LOGARITHMIC SCALE (LEFT) AND TUMOR-infiltrating CAR-T cells at the time of euthanasia (right).
HOS-FRα (i.e. HOS-143b-LV-FRα) is a subclone of HOS-143B (ATCC CRL-8303) stably transfected with human FRα. HOS-143B was originally derived from a […] with osteosarcoma. The tumor cells were grown in folate-deficient RPMI 1640 with 5% FBS at 37° C. in a 5% CO2 humidified atmosphere. For the in-vivo study, tumor cells were inoculated subcutaneously at 1×10^6 cells per animal.
EGFRt-sorted anti-FITC E2 scFv-CAR T cells were frozen in a T-cell freezing medium. Upon arrival, vials of frozen CAR-T cells were immediately stored at −80° C. The CAR-T cells were quickly thawed at 37° C., washed twice with PBS, and used for animal injection at 6 million viable EGFRt+ E2 CAR-T cells (CD4/CD8 at ˜1:1) per animal. A small aliquot was taken on the day infusion for flow cytometric analysis of E2-CAR T-cell phenotypes.
EC17 dosing solutions were prepared when dosing began by weighing appropriate amounts of each compound, reconstituting in PBS, pH 7.4, sterile filtering the drug solution through a 0.22 μm PVDF syringe filter, and freezing aliquots for each day of dosing at −20° C.
All EC17 doses were given towards the end of day (3-4 PM) to allow potential CRS (cytokine release syndrome) to develop overnight. On the following morning, animals were scored according to a CRS grading system (see below).
Tumor growth, body weight, and overall assessment: Tumor sizes were monitored 2-3 times/week and body weight measured 2-3 times/week. On the days immediately after any EC17 dose, body weight measurement was taken daily and attention was given to gross animal morphology and behavior.
Euthanasia: Euthanasia was performed when mice had lost ≥20% of their weight, when tumors reached ≥1500 mm^3. Euthanasia was also performed if mice lost a lot of weight in a short duration (e.g., due to severe head-tilt), or when they approached moribund conditions per CRS grading system. • EC17 intra-host dose escalation treatment (3 cycles). See FIG. 16. • Antitumor activity (N=5)
All animal care and use were performed according to NIH guidelines and in compliance with protocols approved by the Purdue University Animal Use and Care Committee. Female 4 to 5-week-old NOD/SCID gamma (NSG™) mice (stock number: 005557) were purchased from The Jackson Laboratory (Bar Harbor, ME). Unless specifically indicated, all animals were maintained on a FA-deficient diet (TestDiet, St. Louis, MO) upon arrival and throughout the study. To establish subcutaneous xenografts, MDA-MB-231 and HOS-FRα were implanted in the right flank region at 2.5×10^6 and 1×10^6 cells per animal, respectively. […] Subcutaneous tumors were measured 2-3 times per week with a caliper and calculated using the ellipsoidal formula (length×width^2)/2. […]

THP1-FRβ xenografts = assay: THP1-FRβ AML intravenous xenograft, E2 CAR-T cells plus EC17; format: in vivo, NSG mice

T1 sequence (P14207 17-230): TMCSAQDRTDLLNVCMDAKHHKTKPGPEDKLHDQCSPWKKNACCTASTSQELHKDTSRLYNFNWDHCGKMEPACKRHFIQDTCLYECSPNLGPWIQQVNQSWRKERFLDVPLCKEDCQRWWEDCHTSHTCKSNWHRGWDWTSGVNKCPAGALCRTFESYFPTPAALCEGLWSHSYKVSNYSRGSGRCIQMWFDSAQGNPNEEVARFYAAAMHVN

For Nc1nc2ncc(CNc3ccc(C(=O)N[C@@H](CCC(=O)NCCNC(=S)Nc4ccc(-c5c6ccc(=O)cc-6oc6cc(O)ccc56)c(C(=O)O)c4)C(=O)O)cc3)nc2c(=O)[nH]1 [EC17, FA-(γ)-ethylenediamine-FITC], the Kd (FRβ (CHO-β)) was 0.8 nM, the “tumor volume (antitumor activity)” value (HOS-FRα xenografts; 6 million E2 CAR-T cells + EC17 5/100/1000 nmol/kg, M/Th/M (Cohort 2, FIG. 4)) was “significant tumor regression” and the “body weight loss or CRS” value (HOS-FRα xenografts; 6 million E2 CAR-T cells + EC17 slow dose escalation M/Th/M (Cohort 2, FIG. 4)) was “without body weight loss or CRS; also recorded: No body weight loss or symptoms of cytokine release syndrome (CRS) were observed”. For the same compound, the “day of euthanasia due to tumor progression” value (HOS-FRα xenografts; five EC17 treated mice, EC17 M/Th/M dose escalation) was 33 (2 mice) and 47 (3 mice) days, the “CRS or body weight loss” value (HOS-FRα xenografts; ~6 million E2-CAR-T cells + EC17 5/10/100, 5/30/300, 5/50/500 nmol/kg Cycles 1-3, M/Th/M (FIG. 14)) was “no CRS or body weight loss” and the tumor growth (HOS-FRα xenografts; ~6 million E2-CAR-T cells + EC17 5/10/100, 5/30/300, 5/50/500 nmol/kg Cycles 1-3, M/Th/M, 6-day break (FIG. 14)) was “significant delay in tumor growth; also recorded: stopped responding to treatment in Cycle 3”. For the same compound, the non-liver macrometastases (THP1-FRβ xenografts; EC17 M/Th/M dose escalation at a slow pace per cycle) was “failed to control the non-liver macrometastases” and the body weight loss (THP1-FRβ xenografts; ~6 million E2 CAR-T + EC17 M/Th/M dose escalation, 6-day break (Cohort 5)) was “little body weight loss during the first two cycles; also recorded: very mild body weight loss”.
